Structures are written as SMILES.

Here are results for 14 molecules from patent US20250059171A1 (Hoffmann-La Roche Inc., priority 2021, published 2025).

One assay addresses HCoV-229E 3CLpro (Human coronavirus 229E, UniProt P0C6X1). The assay can be described thus: HCoV-229E 3CLpro inhibition assay (FRET). In kind it is biochemical.
In the next assay the target is MERS-CoV 3CLpro (Middle East respiratory syndrome-related coronavirus, UniProt K9N7C7). The assay can be described thus: biochemical.
MERS-CoV 3CLpro, sequence (K9N7C7 3248-3553): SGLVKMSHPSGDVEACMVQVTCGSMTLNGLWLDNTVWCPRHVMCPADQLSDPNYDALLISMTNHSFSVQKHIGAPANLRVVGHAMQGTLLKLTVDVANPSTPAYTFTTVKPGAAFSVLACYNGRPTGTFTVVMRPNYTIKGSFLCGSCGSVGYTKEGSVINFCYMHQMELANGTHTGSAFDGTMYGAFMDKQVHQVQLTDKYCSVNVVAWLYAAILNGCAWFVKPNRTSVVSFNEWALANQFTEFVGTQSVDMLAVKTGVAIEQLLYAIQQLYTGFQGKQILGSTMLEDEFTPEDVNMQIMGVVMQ
The next assay deals with SARS-CoV-2 3CLpro (Severe acute respiratory syndrome coronavirus 2, UniProt P0DTD1). The assay is described as follows: biochemical.
Another assay has as its target SARS-CoV 3CLpro (Severe acute respiratory syndrome coronavirus, UniProt P0C6X7). The assay can be described thus: biochemical.

HCoV-229E 3CLpro, sequence (P0C6X1 2966-3267): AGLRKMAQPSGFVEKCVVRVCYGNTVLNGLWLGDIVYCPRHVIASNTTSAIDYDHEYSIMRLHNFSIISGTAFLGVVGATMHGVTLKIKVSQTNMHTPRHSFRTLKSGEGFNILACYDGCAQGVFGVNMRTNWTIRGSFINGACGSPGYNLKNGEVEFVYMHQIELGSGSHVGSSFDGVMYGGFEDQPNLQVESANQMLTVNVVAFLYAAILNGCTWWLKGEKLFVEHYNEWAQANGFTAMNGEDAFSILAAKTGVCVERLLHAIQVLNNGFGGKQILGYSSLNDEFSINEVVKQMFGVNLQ

Consider `CCC(C)(C)[C@H](NC(=O)C(F)(F)F)C(=O)N1C[C@H]2[C@@H]([C@H]1C(=O)NN(C[C@@H]1CCNC1=O)C(=O)[C@H](F)Cl)C2(C)C` [Example 86, N-[(1S)-1-[(1R,2S,5S)-2-[[[(2R)-2-chloro-2-fluoro-acetyl]-[[(3S)-2-oxopyrrolidin-3-yl]methyl]amino]carbamoyl]-6,6-dimethyl-3-azabicyclo[3.1.0]hexane-3-carbonyl]-2,2-dimethyl-butyl]-2,2,2-trifluoro-acetamide], for which the IC50 at HCoV-229E 3CLpro is 35 nM; on MERS-CoV 3CLpro, 86 nM; on SARS-CoV-2 3CLpro, 7 nM; against SARS-CoV 3CLpro, 19 nM.

For `CC(C)(C)[C@H](NC(=O)C(F)(F)F)C(=O)N1C[C@H]2[C@@H]([C@H]1C(=O)NN(CCC(N)=O)C(=O)[C@H](F)Cl)C2(C)C` [Example 87, 3-[[(2R)-2-chloro-2-fluoro-acetyl]-[[(1R,2S,5S)-3-[(2S)-3,3-dimethyl-2-[(2,2,2-trifluoroacetyl)amino]butanoyl]-6,6-dimethyl-3-azabicyclo[3.1.0]hexane-2-carbonyl]amino]amino]propanamide], the IC50 was 19 nM against HCoV-229E 3CLpro, 73 nM against MERS-CoV 3CLpro, 14 nM against SARS-CoV-2 3CLpro and 9.3 nM against SARS-CoV 3CLpro.

`CC(C)(C)[C@H](NC(=O)C1CC(F)(F)C1)C(=O)N1C[C@H]2[C@@H]([C@H]1C(=O)NN(C[C@@H]1CCNC1=O)C(=O)[C@H](F)Cl)C2(C)C` [Example 90, N-[(1S)-1-[(1R,2S,5S)-2-[[[(2R)-2-chloro-2-fluoro-acetyl]-[[(3S)-2-oxopyrrolidin-3-yl]methyl]amino]carbamoyl]-6,6-dimethyl-3-azabicyclo[3.1.0]hexane-3-carbonyl]-2,2-dimethyl-propyl]-3,3-difluoro-cyclobutanecarboxamide]: the concentration for half-maximal inhibition (IC50) is 22 nM against HCoV-229E 3CLpro, 55 nM against MERS-CoV 3CLpro, 10 nM at SARS-CoV-2 3CLpro and 12 nM at SARS-CoV 3CLpro.

Turning to `CC(C)(C)[C@H](NC(=O)C1(F)CCC1)C(=O)N1C[C@H]2[C@@H]([C@H]1C(=O)NN(C[C@@H]1CCNC1=O)C(=O)[C@H](F)Cl)C2(C)C` [Example 91, N-[(1S)-1-[(1R,2S,5S)-2-[[[(2R)-2-chloro-2-fluoro-acetyl]-[[(3S)-2-oxopyrrolidin-3-yl]methyl]amino]carbamoyl]-6,6-dimethyl-3-azabicyclo[3.1.0]hexane-3-carbonyl]-2,2-dimethyl-propyl]-1-fluoro-cyclobutanecarboxamide], the IC50 came to 39 nM on HCoV-229E 3CLpro, 115 nM at MERS-CoV 3CLpro, 12 nM on SARS-CoV-2 3CLpro and 15 nM at SARS-CoV 3CLpro.

Take `CC(C)(C)[C@H](NC(=O)[C@@H]1CC1(F)F)C(=O)N1C[C@H]2[C@@H]([C@H]1C(=O)NN(C[C@@H]1CCNC1=O)C(=O)[C@H](F)Cl)C2(C)C` [Example 92, (1S)—N-[(1S)-1-[(1R,2S,5S)-2-[[[(2R)-2-chloro-2-fluoro-acetyl]-[[(3S)-2-oxopyrrolidin-3-yl]methyl]amino]carbamoyl]-6,6-dimethyl-3-azabicyclo[3.1.0]hexane-3-carbonyl]-2,2-dimethyl-propyl]-2,2-difluoro-cyclopropanecarboxamide]: the half-inhibitory concentration (IC50) against HCoV-229E 3CLpro is 23 nM; against MERS-CoV 3CLpro, 57 nM; against SARS-CoV-2 3CLpro, 8 nM; against SARS-CoV 3CLpro, 18 nM.

On to `CC(C)(C)[C@H](NC(=O)C1CC(F)(F)C1)C(=O)N1C[C@H]2[C@@H]([C@H]1C(=O)NN(C[C@@H]1CCNC1=O)C(=O)[C@@H](F)Cl)C2(C)C` [Example 93, N-[(1S)-1-[(1R,2S,5S)-2-[[[(2S)-2-chloro-2-fluoro-acetyl]-[[(3S)-2-oxopyrrolidin-3-yl]methyl]amino]carbamoyl]-6,6-dimethyl-3-azabicyclo[3.1.0]hexane-3-carbonyl]-2,2-dimethyl-propyl]-3,3-difluoro-cyclobutanecarboxamide], for which the IC50 on HCoV-229E 3CLpro was found to be 42 nM; on MERS-CoV 3CLpro it was 94 nM; on SARS-CoV-2 3CLpro it was 31 nM; on SARS-CoV 3CLpro, 54 nM.

As to `CC(C)(C)[C@H](NC(=O)C1(F)CC1)C(=O)N1C[C@H]2[C@@H]([C@H]1C(=O)NN(C[C@@H]1CCNC1=O)C(=O)[C@@H](F)Cl)C2(C)C` [Example 94, N-[(1S)-1-[(1R,2S,5S)-2-[[[(2S)-2-chloro-2-fluoro-acetyl]-[[(3S)-2-oxopyrrolidin-3-yl]methyl]amino]carbamoyl]-6,6-dimethyl-3-azabicyclo[3.1.0]hexane-3-carbonyl]-2,2-dimethyl-propyl]-1-fluoro-cyclopropanecarboxamide], the IC50 against HCoV-229E 3CLpro turned out to be 59 nM; at MERS-CoV 3CLpro it was 136 nM; at SARS-CoV-2 3CLpro, 21 nM; against SARS-CoV 3CLpro it was 29 nM.

Consider `CC(C)(C)[C@H](NC(=O)[C@@H]1CC1(F)F)C(=O)N1C[C@H]2[C@@H]([C@H]1C(=O)NN(C[C@@H]1CCNC1=O)C(=O)[C@@H](F)Cl)C2(C)C` [Example 95, (1S)—N-[(1S)-1-[(1R,2S,5S)-2-[[[(2S)-2-chloro-2-fluoro-acetyl]-[[(3S)-2-oxopyrrolidin-3-yl]methyl]amino]carbamoyl]-6,6-dimethyl-3-azabicyclo[3.1.0]hexane-3-carbonyl]-2,2-dimethyl-propyl]-2,2-difluoro-cyclopropanecarboxamide], for which the half-maximal inhibitory concentration (IC50) against HCoV-229E 3CLpro was 28 nM; at MERS-CoV 3CLpro, 71 nM; against SARS-CoV-2 3CLpro, 10 nM; on SARS-CoV 3CLpro, 14 nM.

Consider `CC(C)(C)[C@H](NC(=O)[C@H]1CC1(F)F)C(=O)N1C[C@H]2[C@@H]([C@H]1C(=O)NN(C[C@@H]1CCNC1=O)C(=O)[C@@H](F)Cl)C2(C)C` [Example 96, (1R)—N-[(1S)-1-[(1R,2S,5S)-2-[[[(2S)-2-chloro-2-fluoro-acetyl]-[[(3S)-2-oxopyrrolidin-3-yl]methyl]amino]carbamoyl]-6,6-dimethyl-3-azabicyclo[3.1.0]hexane-3-carbonyl]-2,2-dimethyl-propyl]-2,2-difluoro-cyclopropanecarboxamide], for which the IC50 on HCoV-229E 3CLpro came out at 25 nM; against MERS-CoV 3CLpro, 63 nM; on SARS-CoV-2 3CLpro, 11 nM; against SARS-CoV 3CLpro, 14 nM.

For `CC(C)(C)[C@H](NC(=O)C1(F)CCC1)C(=O)N1C[C@@H]2CCC[C@@H]2[C@H]1C(=O)NN(C[C@@H]1CCNC1=O)C(=O)[C@H](F)Cl` [Example 97, N-[(1S)-1-[(3S,3aS,6aR)-3-[[[(2R)-2-chloro-2-fluoro-acetyl]-[[(3S)-2-oxopyrrolidin-3-yl]methyl]amino]carbamoyl]-3,3a,4,5,6,6a-hexahydro-1H-cyclopenta[c]pyrrole-2-carbonyl]-2,2-dimethyl-propyl]-1-fluoro-cyclobutanecarboxamide], the IC50 came out at 74 nM on HCoV-229E 3CLpro, 208 nM against MERS-CoV 3CLpro, 11 nM against SARS-CoV-2 3CLpro and 13 nM against SARS-CoV 3CLpro.

For `CC(C)(C)[C@H](NC(=O)C1CC(F)(F)C1)C(=O)N1C[C@@H]2CCC[C@@H]2[C@H]1C(=O)NN(C[C@@H]1CCNC1=O)C(=O)[C@H](F)Cl` [Example 98, N-[(1S)-1-[(3S,3aS,6aR)-3-[[[(2R)-2-chloro-2-fluoro-acetyl]-[[(3S)-2-oxopyrrolidin-3-yl]methyl]amino]carbamoyl]-3,3a,4,5,6,6a-hexahydro-1H-cyclopenta[c]pyrrole-2-carbonyl]-2,2-dimethyl-propyl]-3,3-difluoro-cyclobutanecarboxamide], the half-inhibitory concentration (IC50) is 22 nM at HCoV-229E 3CLpro, 59 nM against MERS-CoV 3CLpro, 9 nM at SARS-CoV-2 3CLpro and 11 nM at SARS-CoV 3CLpro.

For the molecule `CC(C)(C)[C@H](NC(=O)[C@@H]1CC1(F)F)C(=O)N1C[C@@H]2CCC[C@@H]2[C@H]1C(=O)NN(C[C@@H]1CCNC1=O)C(=O)[C@H](F)Cl` [Example 99, (1S)—N-[(1S)-1-[(3S,3aS,6aR)-3-[[[(2R)-2-chloro-2-fluoro-acetyl]-[[(3S)-2-oxopyrrolidin-3-yl]methyl]amino]carbamoyl]-3,3a,4,5,6,6a-hexahydro-1H-cyclopenta[c]pyrrole-2-carbonyl]-2,2-dimethyl-propyl]-2,2-difluoro-cyclopropanecarboxamide], the half-maximal inhibitory concentration (IC50) against HCoV-229E 3CLpro stood at 30 nM; on MERS-CoV 3CLpro it was 81 nM; at SARS-CoV-2 3CLpro it was 8 nM; on SARS-CoV 3CLpro, 12 nM.

Turning to `CC(C)(C)[C@H](NC(=O)[C@H]1CC1(F)F)C(=O)N1C[C@@H]2CCC[C@@H]2[C@H]1C(=O)NN(C[C@@H]1CCNC1=O)C(=O)[C@H](F)Cl` [Example 100, (1R)—N-[(1S)-1-[(3S,3aS,6aR)-3-[[[(2R)-2-chloro-2-fluoro-acetyl]-[[(3S)-2-oxopyrrolidin-3-yl]methyl]amino]carbamoyl]-3,3a,4,5,6,6a-hexahydro-1H-cyclopenta[c]pyrrole-2-carbonyl]-2,2-dimethyl-propyl]-2,2-difluoro-cyclopropanecarboxamide], the IC50 was 32 nM against HCoV-229E 3CLpro, 77 nM on MERS-CoV 3CLpro, 8 nM on SARS-CoV-2 3CLpro and 14 nM on SARS-CoV 3CLpro.

For the molecule `CC(C)(C)[C@H](NC(=O)[C@@H]1CC1(F)F)C(=O)N1C[C@@H]2CCC[C@@H]2[C@H]1C(=O)NN(C[C@@H]1CCNC1=O)C(=O)[C@@H](F)Cl` [Example 101, (1S)—N-[(1S)-1-[(3S,3aS,6aR)-3-[[[(2S)-2-chloro-2-fluoro-acetyl]-[[(3S)-2-oxopyrrolidin-3-yl]methyl]amino]carbamoyl]-3,3a,4,5,6,6a-hexahydro-1H-cyclopenta[c]pyrrole-2-carbonyl]-2,2-dimethyl-propyl]-2,2-difluoro-cyclopropanecarboxamide], the IC50 on HCoV-229E 3CLpro stood at 40 nM; against MERS-CoV 3CLpro it was 94 nM; at SARS-CoV-2 3CLpro, 9 nM; on SARS-CoV 3CLpro it was 13 nM.
